Active and inactive are the calls of the source.
How the values were obtained:
Phospholipase D1 = Phospholipase D1 (Homo sapiens, UniProt Q13393); assay: cellular phospholipase D1 inhibition IC50 – cell-based, dose response (AID 602151); assay type: functional;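 note: cellular PLD1 assay in Calu-1 cells stimulated with PMA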
Phospholipase D2 = Phospholipase D2 (Homo sapiens, UniProt O14939); assay: cellular phospholipase D2 inhibition IC50 – cell-based, dose response (AID 602147); assay type: functional;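 note: cellular assay in HEK293 cells overexpressing GFP-tagged PLD2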
[1] = tested on: Streptococcus sp. 'group A'; assay: Streptococcus pyogenes SK(-)GAS viability under kanamycin – luminescence, BacTiterGlo, confirmation, counter-screen for streptokinase expression inhibitor project, dose response (AID 1900); assay type: functional, organism-based
Streptokinase A = biological target: T1, Streptokinase A (Streptococcus pyogenes serotype M1, UniProt P10520); assay: viability-normalized secreted streptokinase activity reduction – plasminogen activation absorbance, OD405, dose response (AID 1914); assay type: functional, Streptococcus pyogenes M1 GAS;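 note: secreted streptokinase activity via plasminogen activation per viability signal from cell pellet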
T1 sequence (P10520 whole entry): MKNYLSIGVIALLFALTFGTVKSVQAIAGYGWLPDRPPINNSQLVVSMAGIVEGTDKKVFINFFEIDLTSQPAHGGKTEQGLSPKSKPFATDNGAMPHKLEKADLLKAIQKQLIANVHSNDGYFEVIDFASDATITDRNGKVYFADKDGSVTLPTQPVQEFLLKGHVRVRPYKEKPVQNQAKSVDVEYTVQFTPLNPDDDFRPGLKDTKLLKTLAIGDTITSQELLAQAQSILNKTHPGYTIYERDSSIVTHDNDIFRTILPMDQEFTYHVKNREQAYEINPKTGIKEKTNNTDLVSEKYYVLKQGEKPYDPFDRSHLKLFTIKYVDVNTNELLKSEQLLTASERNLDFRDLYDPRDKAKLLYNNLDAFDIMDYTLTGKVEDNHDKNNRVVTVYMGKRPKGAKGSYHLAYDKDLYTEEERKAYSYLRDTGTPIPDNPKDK

Streptococcus = assay: GAS UMAA2166 growth inhibition – luminescence, BacTiterGlo, counter-screen for streptokinase expression inhibitor project, dose response (AID 1915); assay type: functional, organism-based;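 note: potency for reduction of bacterial viability or growth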
[2] = biological target: Dual specificity tyrosine-phosphorylation-regulated kinase 1A (Rattus norvegicus, UniProt Q63470); assay type: biochemical, Homo sapiens
Caspase-3 = biological target: T2, Caspase-3 (Homo sapiens, UniProt P42574); assay: inhibition of recombinant caspase-3 activity – biochemical, luminescence, set 2, selectivity assay for SENP protease inhibitor project, SAR follow-up (AID 588599); assay type: functional
T2 sequence (P42574 whole entry): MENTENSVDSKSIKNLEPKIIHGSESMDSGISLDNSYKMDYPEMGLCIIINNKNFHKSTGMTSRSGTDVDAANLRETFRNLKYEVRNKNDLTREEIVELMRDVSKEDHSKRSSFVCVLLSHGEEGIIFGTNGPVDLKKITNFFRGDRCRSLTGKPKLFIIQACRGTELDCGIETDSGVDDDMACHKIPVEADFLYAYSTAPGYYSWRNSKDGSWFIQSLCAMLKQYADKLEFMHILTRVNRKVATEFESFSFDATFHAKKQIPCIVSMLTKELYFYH

[3] = biological target: T3, Sentrin-specific protease 8 (Homo sapiens, UniProt Q96LD8); assay: inhibition of sentrin protease 8 – biochemical, luminescence, set 2, SAR follow-up (AID 588601); assay type: functional
T3 sequence (Q96LD8 whole entry): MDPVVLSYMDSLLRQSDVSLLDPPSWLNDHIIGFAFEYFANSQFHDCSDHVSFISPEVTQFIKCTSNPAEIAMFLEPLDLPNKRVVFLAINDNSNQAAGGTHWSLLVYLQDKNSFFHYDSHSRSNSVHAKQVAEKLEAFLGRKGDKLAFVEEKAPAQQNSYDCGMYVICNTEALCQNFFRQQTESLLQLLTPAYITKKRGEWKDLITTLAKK

[4] = biological target: T4, Sentrin-specific protease 7 (Homo sapiens, UniProt Q9BQF6); assay: inhibition of human SENP7 cleavage activity – biochemical, luminescence, set 2, SAR follow-up (AID 588600); assay type: functional
T4 sequence (Q9BQF6 whole entry): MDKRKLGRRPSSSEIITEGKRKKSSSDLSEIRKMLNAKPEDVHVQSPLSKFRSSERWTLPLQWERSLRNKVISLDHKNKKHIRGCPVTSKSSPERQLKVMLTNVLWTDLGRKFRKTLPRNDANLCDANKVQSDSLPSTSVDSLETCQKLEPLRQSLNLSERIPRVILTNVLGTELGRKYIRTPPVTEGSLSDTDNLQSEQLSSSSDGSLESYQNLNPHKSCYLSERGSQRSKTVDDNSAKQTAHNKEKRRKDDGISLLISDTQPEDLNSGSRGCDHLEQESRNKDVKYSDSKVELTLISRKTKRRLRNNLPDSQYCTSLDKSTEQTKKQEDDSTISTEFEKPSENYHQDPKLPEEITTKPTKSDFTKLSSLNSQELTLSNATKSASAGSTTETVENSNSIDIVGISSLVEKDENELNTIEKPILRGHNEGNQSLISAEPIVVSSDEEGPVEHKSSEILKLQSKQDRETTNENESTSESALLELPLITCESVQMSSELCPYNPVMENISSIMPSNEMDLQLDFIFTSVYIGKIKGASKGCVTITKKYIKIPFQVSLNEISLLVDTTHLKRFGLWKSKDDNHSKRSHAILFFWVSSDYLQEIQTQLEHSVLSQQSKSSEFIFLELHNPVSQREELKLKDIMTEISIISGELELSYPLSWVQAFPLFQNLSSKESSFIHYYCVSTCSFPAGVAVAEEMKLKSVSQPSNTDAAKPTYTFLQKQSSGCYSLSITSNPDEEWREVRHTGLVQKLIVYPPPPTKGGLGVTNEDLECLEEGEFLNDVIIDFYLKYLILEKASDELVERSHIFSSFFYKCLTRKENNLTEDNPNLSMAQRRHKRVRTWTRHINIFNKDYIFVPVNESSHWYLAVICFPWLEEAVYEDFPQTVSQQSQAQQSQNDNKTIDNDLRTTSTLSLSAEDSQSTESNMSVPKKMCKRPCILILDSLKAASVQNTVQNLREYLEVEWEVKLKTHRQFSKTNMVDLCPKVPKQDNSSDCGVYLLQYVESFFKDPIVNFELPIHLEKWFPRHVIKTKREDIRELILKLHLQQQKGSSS

[5] = biological target: T5, Sentrin-specific protease 6 (Homo sapiens, UniProt Q9GZR1); assay: inhibition of human SENP6 catalytic domain – biochemical, luminescence, set 2, SAR follow-up (AID 588598); assay type: functional
T5 sequence (Q9GZR1 whole entry): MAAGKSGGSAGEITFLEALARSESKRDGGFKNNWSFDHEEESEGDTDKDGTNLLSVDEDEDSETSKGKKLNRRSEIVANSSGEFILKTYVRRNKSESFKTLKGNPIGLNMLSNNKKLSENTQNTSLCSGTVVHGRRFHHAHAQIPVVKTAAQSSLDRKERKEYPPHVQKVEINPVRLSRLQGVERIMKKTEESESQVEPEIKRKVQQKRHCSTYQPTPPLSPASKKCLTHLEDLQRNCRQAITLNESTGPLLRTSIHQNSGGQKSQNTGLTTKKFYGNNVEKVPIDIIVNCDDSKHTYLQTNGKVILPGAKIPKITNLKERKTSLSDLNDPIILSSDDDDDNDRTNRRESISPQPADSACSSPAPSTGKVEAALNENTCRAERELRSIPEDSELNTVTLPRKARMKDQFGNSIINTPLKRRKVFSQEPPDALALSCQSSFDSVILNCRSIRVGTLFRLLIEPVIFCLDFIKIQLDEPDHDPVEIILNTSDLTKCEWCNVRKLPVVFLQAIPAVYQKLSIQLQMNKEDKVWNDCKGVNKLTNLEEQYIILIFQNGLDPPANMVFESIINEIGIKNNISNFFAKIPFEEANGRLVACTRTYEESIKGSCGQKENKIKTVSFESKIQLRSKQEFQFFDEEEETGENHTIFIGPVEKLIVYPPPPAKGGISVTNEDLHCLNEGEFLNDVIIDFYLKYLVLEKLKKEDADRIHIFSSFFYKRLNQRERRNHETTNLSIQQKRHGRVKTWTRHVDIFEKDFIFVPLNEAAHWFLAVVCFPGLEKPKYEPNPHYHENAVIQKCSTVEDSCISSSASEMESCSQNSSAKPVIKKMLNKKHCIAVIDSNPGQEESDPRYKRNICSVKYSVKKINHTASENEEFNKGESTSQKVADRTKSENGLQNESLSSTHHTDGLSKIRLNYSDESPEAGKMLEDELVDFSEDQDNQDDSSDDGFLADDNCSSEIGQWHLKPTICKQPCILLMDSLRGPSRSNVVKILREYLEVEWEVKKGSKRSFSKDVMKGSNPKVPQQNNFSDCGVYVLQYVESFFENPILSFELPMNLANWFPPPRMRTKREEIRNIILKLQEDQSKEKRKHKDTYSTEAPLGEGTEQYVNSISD

[6] = biological target: Envelope glycoprotein gp160 (Human immunodeficiency virus 1, UniProt Q6QLK5); assay: cell-free HIV fusion peptide-binding blockers – biochemical, uHTS, fluorescence dequenching, […] (AID 1986)
[7] = biological target: T6, RNA-binding protein pos-1 (Caenorhabditis elegans, UniProt G5EF15); assay: disruptors of C. elegans POS-1 RNA interaction – biochemical, fluorescence polarization, dose response (AID 1964);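 note: purified POS-1 fused to maltose binding protein made in E. coli; potency of compounds blocking POS-1 binding to fluorescent RNA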
T6 sequence (G5EF15 whole entry): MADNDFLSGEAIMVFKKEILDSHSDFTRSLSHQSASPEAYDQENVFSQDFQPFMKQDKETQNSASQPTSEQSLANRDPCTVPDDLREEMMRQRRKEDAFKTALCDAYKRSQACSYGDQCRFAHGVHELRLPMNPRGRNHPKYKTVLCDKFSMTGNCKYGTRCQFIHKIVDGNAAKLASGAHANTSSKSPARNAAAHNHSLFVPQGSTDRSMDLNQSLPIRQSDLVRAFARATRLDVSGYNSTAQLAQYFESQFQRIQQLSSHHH

Large T antigen = Large T antigen (Simian virus 40, UniProt P03070); assay type: functional, Betapolyomavirus macacae;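 note: Confirmatory-stage PubChem screen for compounds that inhibit SV40 T antigen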
NS3 = NS3 (Hepatitis C virus, UniProt A3EZJ3); assay: PubChem AID 2173; set-up: species or system Hepacivirus hominis
[8] = biological target: Intestinal-type alkaline phosphatase (Mus musculus, UniProt P24822); assay: PubChem AID 488785; assay type: functional
[9] = biological target: Beta-adrenergic receptor kinase 1 (Homo sapiens, UniProt P25098); assay: aptamer displacement from bead-bound GRK2 – biochemical, cherry pick 1, bead flow cytometry, dose response (AID 504500)
[10] = biological target: T7, Alkaline phosphatase, tissue-nonspecific isozyme (Homo sapiens, UniProt P05186); assay: TNAP enzyme inhibition by screening hits, dose response, selectivity assay for mouse IAP inhibitor project, biochemical, human TNAP, uHTS hits (AID 488906); assay type: functional
T7 sequence (P05186 whole entry): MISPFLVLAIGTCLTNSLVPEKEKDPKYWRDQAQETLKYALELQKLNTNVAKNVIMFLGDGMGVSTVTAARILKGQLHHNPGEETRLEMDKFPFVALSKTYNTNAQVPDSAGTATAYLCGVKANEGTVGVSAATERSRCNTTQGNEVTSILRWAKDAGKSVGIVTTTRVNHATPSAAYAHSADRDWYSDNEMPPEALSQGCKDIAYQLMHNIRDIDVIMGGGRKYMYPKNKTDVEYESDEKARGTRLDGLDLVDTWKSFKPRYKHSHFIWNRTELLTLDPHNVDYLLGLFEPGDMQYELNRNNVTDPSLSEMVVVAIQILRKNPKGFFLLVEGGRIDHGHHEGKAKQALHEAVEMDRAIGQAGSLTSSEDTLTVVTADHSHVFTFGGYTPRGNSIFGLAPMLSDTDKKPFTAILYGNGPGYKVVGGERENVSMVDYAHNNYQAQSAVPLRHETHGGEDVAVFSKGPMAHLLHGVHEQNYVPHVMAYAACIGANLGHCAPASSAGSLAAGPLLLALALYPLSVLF

[11] = biological target: Intestinal-type alkaline phosphatase (Homo sapiens, UniProt P09923); assay: inhibition of human intestinal alkaline phosphatase – biochemical, dose response (AID 488876); assay type: functional
Genome polyprotein = Genome polyprotein (dengue virus type 2, UniProt P29990); assay: flavivirus cap methylation enzyme inhibition – biochemical, confirmation dose response, primary screen (AID 588689); assay type: functional
[12] = biological target: T8, Endoribonuclease toxin MazF (Escherichia coli K-12, UniProt P0AE70); assay: activation of MazEF endoribonuclease cleavage – biochemical, fluorescence, single-stranded RNA substrate, uHTS hits, dose response (AID 588481); assay type: functional
[13] = biological target: T8, Endoribonuclease toxin MazF; assay: substrate-only fluorescence increase artefacts – biochemical, single-stranded RNase substrate, counter-screen for MazEF activator project, dose response (AID 588502); assay type: functional
[14] = biological target: T9, Sentrin-specific protease 1 (Homo sapiens, UniProt Q9P0U3); assay: SENP1 catalytic domain blockers, concentration series – biochemical, kinetic FRET, dose response (AID 651697); assay type: functional; conditions: read-out: IC50_Mean
[15] = biological target: T9, Sentrin-specific protease 1; assay: Dose response confirmation of small molecule inhibitors of the catalytic domain of the SUMO protease, SENP1 in a FRET assay.; assay type: functional; conditions: read-out: IC50_Mean

T8 sequence (P0AE70 whole entry): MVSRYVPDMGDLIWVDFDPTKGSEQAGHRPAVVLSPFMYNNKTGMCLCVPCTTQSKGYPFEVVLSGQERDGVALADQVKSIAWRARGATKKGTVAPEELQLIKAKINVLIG
T9 sequence (Q9P0U3 whole entry, the tested form may be a part): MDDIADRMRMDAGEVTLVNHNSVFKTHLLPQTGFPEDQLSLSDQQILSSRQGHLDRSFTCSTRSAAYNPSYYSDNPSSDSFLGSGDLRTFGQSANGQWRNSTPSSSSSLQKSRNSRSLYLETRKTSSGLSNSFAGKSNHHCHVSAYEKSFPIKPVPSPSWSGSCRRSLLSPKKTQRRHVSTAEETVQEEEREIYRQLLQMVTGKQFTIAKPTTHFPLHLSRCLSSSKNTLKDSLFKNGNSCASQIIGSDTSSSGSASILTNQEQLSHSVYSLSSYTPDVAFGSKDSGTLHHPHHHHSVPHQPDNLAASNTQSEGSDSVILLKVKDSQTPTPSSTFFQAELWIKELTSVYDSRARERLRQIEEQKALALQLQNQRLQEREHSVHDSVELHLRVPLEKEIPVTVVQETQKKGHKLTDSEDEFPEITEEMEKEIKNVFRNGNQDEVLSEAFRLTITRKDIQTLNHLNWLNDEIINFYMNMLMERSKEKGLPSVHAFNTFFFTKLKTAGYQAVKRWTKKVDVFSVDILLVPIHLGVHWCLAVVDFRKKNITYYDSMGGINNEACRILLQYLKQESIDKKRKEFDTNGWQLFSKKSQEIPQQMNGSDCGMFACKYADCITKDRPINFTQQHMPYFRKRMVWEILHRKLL
Beta-adrenergic receptor kinase 1, sequence (P25098 whole entry): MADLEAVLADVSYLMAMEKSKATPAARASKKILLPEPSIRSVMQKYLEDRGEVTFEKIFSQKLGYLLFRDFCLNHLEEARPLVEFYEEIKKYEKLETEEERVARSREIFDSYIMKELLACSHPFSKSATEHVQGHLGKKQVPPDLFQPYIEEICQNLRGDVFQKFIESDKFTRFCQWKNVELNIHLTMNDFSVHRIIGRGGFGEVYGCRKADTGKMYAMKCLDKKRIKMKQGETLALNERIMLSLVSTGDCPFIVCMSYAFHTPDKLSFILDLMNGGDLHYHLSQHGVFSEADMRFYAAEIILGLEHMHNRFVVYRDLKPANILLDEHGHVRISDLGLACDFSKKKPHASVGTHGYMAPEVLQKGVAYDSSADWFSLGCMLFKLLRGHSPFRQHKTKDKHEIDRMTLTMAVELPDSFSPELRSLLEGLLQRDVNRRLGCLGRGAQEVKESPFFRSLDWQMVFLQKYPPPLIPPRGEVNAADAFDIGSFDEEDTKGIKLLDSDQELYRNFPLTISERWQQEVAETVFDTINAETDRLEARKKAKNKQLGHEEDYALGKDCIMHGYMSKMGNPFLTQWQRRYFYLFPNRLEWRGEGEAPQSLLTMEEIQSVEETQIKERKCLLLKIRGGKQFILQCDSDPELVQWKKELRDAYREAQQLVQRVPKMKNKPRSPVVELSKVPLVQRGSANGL
Phospholipase D2, sequence (O14939 whole entry): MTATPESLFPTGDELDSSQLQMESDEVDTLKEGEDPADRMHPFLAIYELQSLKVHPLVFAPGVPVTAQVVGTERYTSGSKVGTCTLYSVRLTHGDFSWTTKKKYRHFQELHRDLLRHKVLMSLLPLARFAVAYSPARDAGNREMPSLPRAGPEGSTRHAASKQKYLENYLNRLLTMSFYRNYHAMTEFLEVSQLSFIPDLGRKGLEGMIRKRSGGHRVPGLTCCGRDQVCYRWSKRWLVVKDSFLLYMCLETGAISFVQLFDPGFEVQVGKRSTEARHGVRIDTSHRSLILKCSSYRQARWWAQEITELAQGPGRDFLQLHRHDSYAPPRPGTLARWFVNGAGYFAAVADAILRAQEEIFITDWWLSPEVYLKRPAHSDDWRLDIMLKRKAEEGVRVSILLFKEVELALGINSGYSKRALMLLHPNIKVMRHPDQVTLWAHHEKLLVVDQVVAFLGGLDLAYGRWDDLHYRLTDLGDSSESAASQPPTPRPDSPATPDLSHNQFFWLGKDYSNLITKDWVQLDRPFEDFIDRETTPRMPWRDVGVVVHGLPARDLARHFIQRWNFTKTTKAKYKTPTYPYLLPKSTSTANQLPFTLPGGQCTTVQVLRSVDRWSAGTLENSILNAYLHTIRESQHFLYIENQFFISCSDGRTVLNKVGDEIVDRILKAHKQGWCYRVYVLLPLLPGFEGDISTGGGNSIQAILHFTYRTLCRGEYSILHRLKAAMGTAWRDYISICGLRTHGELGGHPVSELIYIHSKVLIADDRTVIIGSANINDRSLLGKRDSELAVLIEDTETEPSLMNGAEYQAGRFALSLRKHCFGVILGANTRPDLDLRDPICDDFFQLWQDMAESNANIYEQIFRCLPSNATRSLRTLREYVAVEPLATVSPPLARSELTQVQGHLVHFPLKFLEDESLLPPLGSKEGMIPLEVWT
Phospholipase D1, sequence (Q13393 whole entry): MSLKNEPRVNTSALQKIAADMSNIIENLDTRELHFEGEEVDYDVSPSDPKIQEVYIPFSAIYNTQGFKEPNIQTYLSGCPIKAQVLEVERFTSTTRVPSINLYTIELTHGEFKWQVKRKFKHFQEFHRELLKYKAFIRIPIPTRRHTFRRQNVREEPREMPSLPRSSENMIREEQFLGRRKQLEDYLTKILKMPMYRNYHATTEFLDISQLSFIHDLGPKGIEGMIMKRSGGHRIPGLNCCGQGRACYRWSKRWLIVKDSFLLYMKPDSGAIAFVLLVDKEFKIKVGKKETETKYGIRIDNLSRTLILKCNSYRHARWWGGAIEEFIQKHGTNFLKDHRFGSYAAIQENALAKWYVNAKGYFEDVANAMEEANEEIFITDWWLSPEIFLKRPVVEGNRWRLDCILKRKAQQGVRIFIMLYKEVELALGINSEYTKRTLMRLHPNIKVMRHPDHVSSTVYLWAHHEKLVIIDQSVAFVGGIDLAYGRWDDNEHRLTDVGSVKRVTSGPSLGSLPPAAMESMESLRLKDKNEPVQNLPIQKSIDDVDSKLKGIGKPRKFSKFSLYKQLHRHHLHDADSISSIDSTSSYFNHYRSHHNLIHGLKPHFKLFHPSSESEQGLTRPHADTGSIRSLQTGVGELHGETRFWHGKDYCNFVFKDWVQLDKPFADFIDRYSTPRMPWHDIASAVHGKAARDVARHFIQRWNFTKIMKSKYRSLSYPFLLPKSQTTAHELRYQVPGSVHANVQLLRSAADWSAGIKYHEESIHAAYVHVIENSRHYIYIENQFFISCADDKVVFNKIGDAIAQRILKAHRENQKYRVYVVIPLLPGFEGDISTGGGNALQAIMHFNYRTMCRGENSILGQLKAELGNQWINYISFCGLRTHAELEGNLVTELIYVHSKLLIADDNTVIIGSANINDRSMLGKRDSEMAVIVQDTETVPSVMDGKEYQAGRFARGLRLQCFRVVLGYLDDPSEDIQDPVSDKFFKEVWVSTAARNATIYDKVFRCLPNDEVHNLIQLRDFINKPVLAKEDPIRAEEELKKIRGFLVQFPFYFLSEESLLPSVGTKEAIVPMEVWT
Envelope glycoprotein gp160, sequence (Q6QLK5 whole entry, the tested form may be a part): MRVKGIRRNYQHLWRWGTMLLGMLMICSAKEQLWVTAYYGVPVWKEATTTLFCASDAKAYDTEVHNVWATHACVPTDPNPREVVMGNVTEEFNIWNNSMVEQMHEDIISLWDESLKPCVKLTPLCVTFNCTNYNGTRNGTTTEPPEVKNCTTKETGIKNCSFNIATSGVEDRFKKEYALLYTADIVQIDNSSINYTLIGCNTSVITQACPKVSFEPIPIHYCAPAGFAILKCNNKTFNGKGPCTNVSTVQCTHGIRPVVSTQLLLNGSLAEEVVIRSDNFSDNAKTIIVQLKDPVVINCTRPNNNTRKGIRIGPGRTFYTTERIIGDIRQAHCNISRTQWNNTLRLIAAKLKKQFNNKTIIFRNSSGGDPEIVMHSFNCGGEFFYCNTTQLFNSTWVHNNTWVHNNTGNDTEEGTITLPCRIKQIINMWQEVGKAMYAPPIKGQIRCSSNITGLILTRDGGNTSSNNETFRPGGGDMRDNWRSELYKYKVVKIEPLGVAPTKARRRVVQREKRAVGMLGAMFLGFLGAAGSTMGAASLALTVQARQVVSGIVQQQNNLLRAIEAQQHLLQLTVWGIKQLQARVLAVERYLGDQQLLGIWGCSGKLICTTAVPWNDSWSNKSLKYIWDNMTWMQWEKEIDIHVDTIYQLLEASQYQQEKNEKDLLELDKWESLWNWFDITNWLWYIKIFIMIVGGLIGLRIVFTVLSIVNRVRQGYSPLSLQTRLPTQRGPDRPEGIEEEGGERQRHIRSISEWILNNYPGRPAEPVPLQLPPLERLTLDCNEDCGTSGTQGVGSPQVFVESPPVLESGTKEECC
NS3, sequence (A3EZJ3 whole entry): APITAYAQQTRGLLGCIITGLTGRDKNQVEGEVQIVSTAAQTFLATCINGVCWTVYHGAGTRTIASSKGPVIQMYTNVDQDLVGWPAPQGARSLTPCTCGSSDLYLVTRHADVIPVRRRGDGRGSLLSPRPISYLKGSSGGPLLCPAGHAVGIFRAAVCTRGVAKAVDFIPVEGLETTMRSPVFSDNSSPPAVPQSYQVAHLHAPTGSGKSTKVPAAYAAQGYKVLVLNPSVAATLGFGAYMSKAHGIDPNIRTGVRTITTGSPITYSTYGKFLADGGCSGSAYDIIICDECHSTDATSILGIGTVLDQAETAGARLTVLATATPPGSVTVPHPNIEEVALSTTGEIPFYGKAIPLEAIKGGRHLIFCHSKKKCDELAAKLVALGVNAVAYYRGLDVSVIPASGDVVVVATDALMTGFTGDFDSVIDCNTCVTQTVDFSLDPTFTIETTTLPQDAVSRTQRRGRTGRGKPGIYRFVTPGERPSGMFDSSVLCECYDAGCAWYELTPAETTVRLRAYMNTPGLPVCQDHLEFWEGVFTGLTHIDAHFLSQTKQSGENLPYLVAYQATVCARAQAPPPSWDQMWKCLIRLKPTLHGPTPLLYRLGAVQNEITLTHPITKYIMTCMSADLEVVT

SMILES: O=C(NCCN1CCC(C(=O)NCCc2ccccn2)CC1)c1ccc2ccccc2c1
- IC50 (Phospholipase D1): 20 µM (active)
- IC50 (Phospholipase D2): 4.2 µM (active)

SMILES: CC1CCc2c(C(=O)Nc3cccc(-c4nn[nH]n4)c3)csc2C1 (stereo not drawn)
- EC50 [1]: 127 µM (active)
- EC50 (Streptokinase A): 27.3 µM (active)
- EC50 (Streptococcus): > 150 µM (not active)
- AC50 [2]: 8.35 µM (active)

SMILES: Cc1ccc2nc(NC(=O)c3cccc(-n4cnnn4)c3)sc2c1
- IC50 (Caspase-3): > 99 µM (inactive)
- IC50 [3]: > 99 µM (inactive)
- IC50 [4]: > 99 µM (inactive)
- IC50 [5]: > 99 µM (inactive)

SMILES: COc1ccc(N2C(=O)/C(=C/c3ccco3)C(=O)NC2=S)cc1
- IC50 [6]: 22.3 µM (active)
- EC50 [7]: 5.3 µM (active)
- IC50 (Large T antigen): 10.8 µM (active)
- IC50 (NS3): 4.61 µM (active)
- IC50 [8]: 16.2 µM (active)
- EC50 [9]: 7.83 µM (active)
- IC50 [10]: 32.4 µM (active)
- IC50 [11]: 46 µM (active)
- IC50 (Genome polyprotein): > 100 µM (active)

SMILES: O=C(CCN1C(=O)/C(=C/c2cccs2)SC1=S)NNC(=O)c1cccc(O)c1
- EC50 [12]: > 99 µM (inactive)
- EC50 [13]: > 99 µM (inactive)
- IC50 [14]: 16.2 µM (active)
- IC50 [15]: 21.9 µM (inactive)

From ChEMBL document CHEMBL1201862, “PubChem BioAssay data set” (2004)
